Patent US20240050409A1, “Methods and Compositions for Treating Psychotic Disorders” (SOUND PHARMACEUTICALS INCORPORATED, priority 2014, published 2024)
“Also recorded” adds a separate entry of the source.

Key:
[1] = system: PFC pyramidal neurons of NVHL rats; experiment: In vivo intracellular recordings: PFC pyramidal cell firing after VTA stimulation in NVHL rats; set-up: species or system Sprague-Dawley rats; details: anesthetized adult NVHL rats, juvenile treatment
Protocol: The abnormal dopamine modulation of PFC function in NVHL rats is also observed in vivo. In vivo intracellular recordings were performed in 38 pyramidal neurons from adult rats (n=9 SHAM (placebo), n=5 NVHL, and n=7 NAC-treated NVHL). […] Up states occurred at a frequency of 0.6±0.1 Hz with a duration of 523.6±24.7 ms. The majority of cells (n=21) fired spontaneously at a rate of 2.1±0.7 Hz.
Antioxidant pretreatment regimen: NAC (BioAdvantexPharma, Mississauga, Ontario, Canada) was administered in the drinking water at 900 mg/l. NAC treatment started at P5 or at P35, and previous work in mice has shown that NAC consumed by the dam is transmitted to the pups through her milk (das Neves Duarte et al., 2012). NAC treatment ended at P50. Fresh solutions were prepared every 2-3 days. Ebselen (Sound Pharmaceuticals Inc., Seattle, WA) was administered i.p. 5 days a week starting at P35 until the day of PPI testing (P60). Stock ebselen solution (20 mg/ml DMSO, frozen aliquots) was diluted 1:5 in sterile water and administered at a dose of 10 mg/kg. Control animals received an equivalent concentration of DMSO diluted 1:5 in water. […]
Microelectrodes were advanced through the medial PFC until a neuron was impaled. […] Firing was measured in the 500 ms epoch following the last VTA pulse in all sweeps, and compared among experimental groups. […]

NVHL rats = experiment: Mismatch negativity (MMN), auditory evoked potentials, NVHL rats; assay type: in vivo, Sprague-Dawley rats; details: juvenile treatment
Protocol: Abnormal excitation-inhibition balance in adult NVHL rats can yield altered information processing that would be prevented by NAC treatment if it depended on oxidative stress. Mismatch negativity (MMN) was tested using auditory evoked potentials in an oddball paradigm in SHAM (n=6), NVHL (n=3), and NAC-treated NVHL rats (n=3). MMN has high translational relevance, as it is attenuated in schizophrenia patients (Javitt et al., 1993) and in animal models (Ehrlichman et al., 2009). Electroencephalographic (EEG) electrodes were implanted in NVHL, NAC-treated NVHL, and SHAM rats. This observation is consistent with the effect of NAC on MMN in patients (Lavoie et al., 2008), and indicates the NVHL model reproduces an important disease marker that can be prevented by juvenile antioxidant treatment. As MMN depends on NMDA receptor function (Umbricht et al., 2000) and NMDA hypofunction in PVI is suspected in schizophrenia, it is possible that MMN improvement with NAC results from restored PVI activity. […]
Mismatch Negativity: NVHL, NAC-treated NVHL, and sham female rats were implanted with chronic EEG electrodes under isoflurane anesthesia. […] A difference wave was constructed by subtracting the standard wave from the deviant wave, and MMN was quantified by measuring the area under the curve in the period between 35 and 100 ms after the stimulus. […]

**Q.** What does the source list for `CC(=O)N[C@@H](CS)C(=O)O` [NAC, N-acetyl cysteine]?
**A.** effect on abnormal increase in pyramidal cell firing after VTA burst stimulation [1]: prevented; also recorded: sparse; effect on MMN deficit (NVHL rats): improving
